# Assay results taken from the kinase profiling compilation of Christmann-Franck et al. (2016).
# Key:
# Assay in all cases: KINOMEscan competition binding
# Conditions in all cases: compound 10.0 µM
# [1] = target: HUNK (human) (UniProt P57058)
# [2] = target: HIPK2 (human) (UniProt Q9H2X6)
# [3] = target: CRK2 (P.falciparum) (UniProt P61075)
# [4] = target: PLK2 (human) (UniProt Q9NYY3)
# [5] = target: CDKL5 (human) (UniProt O76039)
# [6] = target: IRAK1 (human) (UniProt P51617)
# [7] = target: GRK7 (human) (UniProt Q8WTQ7)
# [8] = target: DSTYK (human) (UniProt Q6XUX3)
# [9] = target: MAP3K13 (human) (UniProt O43283)
# [10] = target: PIK3CA (human) (UniProt P42336)
# [11] = target: MAST1 (human) (UniProt Q9Y2H9)
# [12] = target: GRK4 (human) (UniProt P32298)
# [13] = target: STK39 (human) (UniProt Q9UEW8)
# [14] = target: ERBB3 (human) (UniProt P21860)
# [15] = target: EIF2AK1 (human) (UniProt Q9BQI3)
# [16] = target: NEK11 (human) (UniProt Q8NG66)
# [17] = target: CASK (human) (UniProt O14936)
# [18] = target: CDKL3 (human) (UniProt Q8IVW4)
# [19] = target: RPS6KB1 (human) (UniProt P23443)
# [20] = target: PIK3C2G (human) (UniProt O75747)
# [21] = target: SGK3 (human) (UniProt Q96BR1)
# [22] = target: GRK1 (human) (UniProt Q15835)
# [23] = target: VRK2 (human) (UniProt Q86Y07)
# [24] = target: MAK (human) (UniProt P20794)
# [25] = target: PIP5K1C (human) (UniProt O60331)
# [26] = target: IRAK4 (human) (UniProt Q9NWZ3)
# [27] = target: MAP2K5 (human) (UniProt Q13163)
# [28] = system: CPK1 (P.falciparum)
# [29] = target: MAP3K15 (human) (UniProt Q6ZN16)
# [30] = target: CSNK1A1 (human) (UniProt P48729)
# [31] = target: TAOK2 (human) (UniProt Q9UL54)
# [32] = target: HIPK3 (human) (UniProt Q9H422)
# [33] = system: PIK3CA (human), P42336 [E545K]
# [34] = system: PIK3CA (human), P42336 [H1047Y]
# [35] = target: TIE1 (human) (UniProt P35590)
# [36] = target: YSK4 (human) (UniProt Q56UN5)
# [37] = target: EGFR (human) (UniProt P00533)
# [38] = target: CDK2 (human) (UniProt P24941)
# [39] = system: EGFR (human), P00533 [P753S; 747-752 del]
# [40] = system: EGFR (human), P00533 [L861Q]
# Sequence of HUNK (human) (P57058 whole entry, looked up): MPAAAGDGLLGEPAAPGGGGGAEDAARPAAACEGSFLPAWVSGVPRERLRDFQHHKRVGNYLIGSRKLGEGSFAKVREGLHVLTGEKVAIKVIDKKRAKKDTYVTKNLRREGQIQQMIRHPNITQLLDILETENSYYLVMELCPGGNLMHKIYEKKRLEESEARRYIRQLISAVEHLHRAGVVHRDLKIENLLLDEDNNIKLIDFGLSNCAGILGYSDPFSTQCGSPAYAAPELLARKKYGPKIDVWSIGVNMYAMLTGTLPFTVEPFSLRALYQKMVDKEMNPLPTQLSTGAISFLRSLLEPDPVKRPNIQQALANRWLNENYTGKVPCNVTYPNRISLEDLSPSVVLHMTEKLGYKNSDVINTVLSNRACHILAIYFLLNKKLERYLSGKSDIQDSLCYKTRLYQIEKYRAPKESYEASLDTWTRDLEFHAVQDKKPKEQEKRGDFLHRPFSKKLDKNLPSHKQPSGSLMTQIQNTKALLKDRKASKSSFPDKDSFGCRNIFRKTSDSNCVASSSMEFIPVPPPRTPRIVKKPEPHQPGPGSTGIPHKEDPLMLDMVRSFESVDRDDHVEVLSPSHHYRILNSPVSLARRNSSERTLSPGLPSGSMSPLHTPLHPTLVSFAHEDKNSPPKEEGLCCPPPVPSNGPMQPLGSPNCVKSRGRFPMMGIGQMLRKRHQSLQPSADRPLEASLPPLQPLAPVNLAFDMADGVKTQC
# Sequence of CDKL3 (human) (Q8IVW4 whole entry, looked up): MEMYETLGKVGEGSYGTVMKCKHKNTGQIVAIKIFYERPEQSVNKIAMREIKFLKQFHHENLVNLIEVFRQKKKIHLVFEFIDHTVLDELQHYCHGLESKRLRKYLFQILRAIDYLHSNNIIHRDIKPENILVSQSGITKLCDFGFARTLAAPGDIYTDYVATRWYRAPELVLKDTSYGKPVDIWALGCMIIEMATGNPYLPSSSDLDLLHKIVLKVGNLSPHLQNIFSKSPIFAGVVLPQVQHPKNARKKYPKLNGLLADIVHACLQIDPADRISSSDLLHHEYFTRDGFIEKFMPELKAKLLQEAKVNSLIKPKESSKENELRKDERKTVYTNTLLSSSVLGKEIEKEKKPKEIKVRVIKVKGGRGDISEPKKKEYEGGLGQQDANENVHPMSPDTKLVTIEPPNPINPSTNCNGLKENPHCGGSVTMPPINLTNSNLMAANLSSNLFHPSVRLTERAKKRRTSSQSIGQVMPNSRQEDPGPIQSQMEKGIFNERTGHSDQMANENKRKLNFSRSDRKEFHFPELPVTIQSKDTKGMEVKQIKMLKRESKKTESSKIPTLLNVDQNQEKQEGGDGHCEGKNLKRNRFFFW
# Sequence of CDKL5 (human) (O76039 whole entry, looked up): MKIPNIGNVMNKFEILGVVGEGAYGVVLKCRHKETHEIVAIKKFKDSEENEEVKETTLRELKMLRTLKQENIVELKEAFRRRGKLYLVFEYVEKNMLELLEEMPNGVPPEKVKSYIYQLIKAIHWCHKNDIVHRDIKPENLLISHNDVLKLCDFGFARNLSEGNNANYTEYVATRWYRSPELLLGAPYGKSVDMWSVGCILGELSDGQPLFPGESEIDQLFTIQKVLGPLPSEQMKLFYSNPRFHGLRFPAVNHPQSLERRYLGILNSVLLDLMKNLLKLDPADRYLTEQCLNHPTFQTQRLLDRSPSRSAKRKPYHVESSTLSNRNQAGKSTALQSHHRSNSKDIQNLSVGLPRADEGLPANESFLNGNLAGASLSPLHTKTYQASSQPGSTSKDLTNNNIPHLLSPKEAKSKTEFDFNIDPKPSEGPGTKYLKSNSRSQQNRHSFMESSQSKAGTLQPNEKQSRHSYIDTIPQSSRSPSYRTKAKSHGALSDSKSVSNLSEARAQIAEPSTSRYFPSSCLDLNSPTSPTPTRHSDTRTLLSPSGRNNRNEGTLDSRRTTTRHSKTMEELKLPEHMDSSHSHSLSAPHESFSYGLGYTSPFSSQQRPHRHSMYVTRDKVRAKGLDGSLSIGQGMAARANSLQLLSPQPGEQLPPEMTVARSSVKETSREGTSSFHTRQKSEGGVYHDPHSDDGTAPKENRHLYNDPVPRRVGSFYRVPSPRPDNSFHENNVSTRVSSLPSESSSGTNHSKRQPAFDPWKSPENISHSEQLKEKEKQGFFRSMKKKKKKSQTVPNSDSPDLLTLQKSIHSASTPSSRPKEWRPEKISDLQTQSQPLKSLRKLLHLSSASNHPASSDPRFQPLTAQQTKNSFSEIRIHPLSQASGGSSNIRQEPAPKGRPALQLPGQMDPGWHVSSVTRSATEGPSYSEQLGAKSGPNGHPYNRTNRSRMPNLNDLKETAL
# Sequence of GRK4 (human) (P32298 whole entry, looked up): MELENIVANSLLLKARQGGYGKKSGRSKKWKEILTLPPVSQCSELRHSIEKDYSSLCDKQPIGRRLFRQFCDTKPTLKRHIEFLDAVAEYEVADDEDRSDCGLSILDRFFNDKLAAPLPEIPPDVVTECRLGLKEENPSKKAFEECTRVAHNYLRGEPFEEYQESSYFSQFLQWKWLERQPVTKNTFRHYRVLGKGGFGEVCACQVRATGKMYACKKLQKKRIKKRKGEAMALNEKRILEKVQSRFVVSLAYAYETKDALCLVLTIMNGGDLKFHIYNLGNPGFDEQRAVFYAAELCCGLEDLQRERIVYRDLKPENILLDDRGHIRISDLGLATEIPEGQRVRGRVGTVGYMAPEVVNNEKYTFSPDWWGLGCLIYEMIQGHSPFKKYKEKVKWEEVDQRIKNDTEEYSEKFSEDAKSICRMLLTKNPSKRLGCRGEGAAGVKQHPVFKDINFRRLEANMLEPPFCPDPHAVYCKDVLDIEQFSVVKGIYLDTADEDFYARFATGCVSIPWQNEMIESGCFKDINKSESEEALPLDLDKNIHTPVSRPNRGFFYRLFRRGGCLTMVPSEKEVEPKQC
# Sequence of TIE1 (human) (P35590 whole entry, looked up): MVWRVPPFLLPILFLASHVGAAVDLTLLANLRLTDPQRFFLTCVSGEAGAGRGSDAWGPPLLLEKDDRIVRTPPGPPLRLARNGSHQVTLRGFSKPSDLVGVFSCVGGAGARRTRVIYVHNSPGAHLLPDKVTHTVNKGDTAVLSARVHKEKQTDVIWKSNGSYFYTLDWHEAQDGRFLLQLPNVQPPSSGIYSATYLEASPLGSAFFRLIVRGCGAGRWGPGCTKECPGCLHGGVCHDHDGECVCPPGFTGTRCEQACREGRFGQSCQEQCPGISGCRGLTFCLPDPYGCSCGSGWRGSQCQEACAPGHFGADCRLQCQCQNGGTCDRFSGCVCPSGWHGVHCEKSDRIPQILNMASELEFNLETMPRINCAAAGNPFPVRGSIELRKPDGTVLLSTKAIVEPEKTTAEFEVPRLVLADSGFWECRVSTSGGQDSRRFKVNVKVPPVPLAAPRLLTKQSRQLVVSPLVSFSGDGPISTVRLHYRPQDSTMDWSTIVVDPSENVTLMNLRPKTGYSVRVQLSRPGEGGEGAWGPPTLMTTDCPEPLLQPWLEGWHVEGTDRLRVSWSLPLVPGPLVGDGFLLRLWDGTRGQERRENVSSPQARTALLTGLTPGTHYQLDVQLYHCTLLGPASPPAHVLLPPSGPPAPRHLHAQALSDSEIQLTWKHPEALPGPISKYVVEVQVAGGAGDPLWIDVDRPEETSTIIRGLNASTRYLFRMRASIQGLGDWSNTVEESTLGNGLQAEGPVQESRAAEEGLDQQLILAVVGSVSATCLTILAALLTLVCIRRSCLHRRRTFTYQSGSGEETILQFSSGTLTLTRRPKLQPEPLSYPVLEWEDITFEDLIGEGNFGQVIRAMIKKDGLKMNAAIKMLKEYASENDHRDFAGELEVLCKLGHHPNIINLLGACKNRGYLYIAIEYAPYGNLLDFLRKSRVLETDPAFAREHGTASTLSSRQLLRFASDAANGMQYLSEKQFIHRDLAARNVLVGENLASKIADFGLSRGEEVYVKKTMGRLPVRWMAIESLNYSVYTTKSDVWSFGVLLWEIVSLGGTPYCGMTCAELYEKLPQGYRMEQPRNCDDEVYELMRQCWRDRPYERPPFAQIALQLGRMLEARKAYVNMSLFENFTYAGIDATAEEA
# Sequence of PIP5K1C (human) (O60331 whole entry, looked up): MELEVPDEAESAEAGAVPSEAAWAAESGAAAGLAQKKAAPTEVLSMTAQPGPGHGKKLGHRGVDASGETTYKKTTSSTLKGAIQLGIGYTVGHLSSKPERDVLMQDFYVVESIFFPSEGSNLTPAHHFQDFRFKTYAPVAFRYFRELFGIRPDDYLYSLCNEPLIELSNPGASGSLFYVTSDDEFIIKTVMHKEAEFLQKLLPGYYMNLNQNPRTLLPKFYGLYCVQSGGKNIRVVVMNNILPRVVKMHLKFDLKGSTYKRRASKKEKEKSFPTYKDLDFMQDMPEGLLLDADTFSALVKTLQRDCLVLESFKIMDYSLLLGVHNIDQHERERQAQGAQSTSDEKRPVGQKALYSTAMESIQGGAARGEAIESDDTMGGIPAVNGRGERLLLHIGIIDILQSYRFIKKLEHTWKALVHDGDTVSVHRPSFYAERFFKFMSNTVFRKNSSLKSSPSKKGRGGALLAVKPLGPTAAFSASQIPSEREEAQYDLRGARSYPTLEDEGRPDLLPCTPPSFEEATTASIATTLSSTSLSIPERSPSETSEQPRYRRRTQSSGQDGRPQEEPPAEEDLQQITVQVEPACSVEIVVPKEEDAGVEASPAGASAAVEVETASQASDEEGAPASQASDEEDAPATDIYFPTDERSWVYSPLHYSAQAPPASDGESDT
# Sequence of CSNK1A1 (human) (P48729 whole entry, looked up): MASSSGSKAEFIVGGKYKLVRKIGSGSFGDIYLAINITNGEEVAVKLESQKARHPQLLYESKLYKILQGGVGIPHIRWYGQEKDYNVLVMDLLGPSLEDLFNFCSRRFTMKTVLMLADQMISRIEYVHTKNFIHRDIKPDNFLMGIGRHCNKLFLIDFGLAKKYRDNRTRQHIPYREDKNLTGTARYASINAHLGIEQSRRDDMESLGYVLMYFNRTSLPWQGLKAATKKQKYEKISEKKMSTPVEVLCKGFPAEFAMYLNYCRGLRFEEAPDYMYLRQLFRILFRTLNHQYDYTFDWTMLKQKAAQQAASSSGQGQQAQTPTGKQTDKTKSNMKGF
SMILES,"kinase still bound, per cent of control [1] [%]","kinase still bound, per cent of control [2] [%]","kinase still bound, per cent of control [3] [%]","kinase still bound, per cent of control [4] [%]","kinase still bound, per cent of control [5] [%]","kinase still bound, per cent of control [6] [%]","kinase still bound, per cent of control [7] [%]","kinase still bound, per cent of control [8] [%]","kinase still bound, per cent of control [9] [%]","kinase still bound, per cent of control [11] [%]","kinase still bound, per cent of control [12] [%]","kinase still bound, per cent of control [13] [%]","kinase still bound, per cent of control [14] [%]","kinase still bound, per cent of control [15] [%]","kinase still bound, per cent of control [17] [%]","kinase still bound, per cent of control [18] [%]","kinase still bound, per cent of control [19] [%]","kinase still bound, per cent of control [21] [%]","kinase still bound, per cent of control [22] [%]","kinase still bound, per cent of control [23] [%]",further results
CCOc1cc2ncc(C#N)c(Nc3ccc(OCc4ccccn4)c(Cl)c3)c2cc1NC(=O)/C=C/CN(C)C,86,65,100,85,100,65,100,69,86,100,68,84,0.1,100,100,100,100,100,84,67,"kinase still bound, per cent of control [10]: 86%; kinase still bound, per cent of control [16]: 64%; kinase still bound, per cent of control [20]: 100%; kinase still bound, per cent of control [24]: 100%; kinase still bound, per cent of control [25]: 100%; kinase still bound, per cent of control [26]: 96%; kinase still bound, per cent of control [27]: 1.8%; kinase still bound, per cent of control [28]: 88%; kinase still bound, per cent of control [29]: 100%; kinase still bound, per cent of control [30]: 100%; kinase still bound, per cent of control [31]: 92%"
COc1cc(N2CCN(C)CC2)ccc1Nc1nc(N)c(C(=O)c2c(Cl)cccc2Cl)s1,100,66,87,91,100,92,100,52,100,24,85,66,50,100,35,86,89,100,100,100,"kinase still bound, per cent of control [32]: 99%; kinase still bound, per cent of control [33]: 100%; kinase still bound, per cent of control [34]: 100%; kinase still bound, per cent of control [35]: 100%; kinase still bound, per cent of control [10]: 99%; kinase still bound, per cent of control [36]: 98%; kinase still bound, per cent of control [16]: 65%; kinase still bound, per cent of control [37]: 100%; kinase still bound, per cent of control [38]: 79%; kinase still bound, per cent of control [20]: 100%; kinase still bound, per cent of control [24]: 26%; kinase still bound, per cent of control [25]: 85%; kinase still bound, per cent of control [39]: 89%; kinase still bound, per cent of control [40]: 100%; kinase still bound, per cent of control [26]: 96%; kinase still bound, per cent of control [27]: 100%; kinase still bound, per cent of control [29]: 51%; kinase still bound, per cent of control [30]: 84%; kinase still bound, per cent of control [31]: 8.2%"
Nc1ccc(-c2ccc3ncc4ccc(=O)n(-c5cccc(C(F)(F)F)c5)c4c3c2)cn1,100,53,100,100,100,84,60,88,100,100,92,100,50,91,67,100,86,100,100,100,"kinase still bound, per cent of control [32]: 92%; kinase still bound, per cent of control [35]: 100%; kinase still bound, per cent of control [36]: 37%; kinase still bound, per cent of control [16]: 80%; kinase still bound, per cent of control [37]: 100%; kinase still bound, per cent of control [38]: 67%; kinase still bound, per cent of control [24]: 96%; kinase still bound, per cent of control [25]: 51%; kinase still bound, per cent of control [39]: 98%; kinase still bound, per cent of control [40]: 93%; kinase still bound, per cent of control [26]: 85%; kinase still bound, per cent of control [27]: 84%; kinase still bound, per cent of control [28]: 52%; kinase still bound, per cent of control [29]: 100%; kinase still bound, per cent of control [30]: 94%; kinase still bound, per cent of control [31]: 92%"
CCCS(=O)(=O)Nc1ccc(F)c(C(=O)c2c[nH]c3ncc(-c4ccc(Cl)cc4)cc23)c1F,9.1,66,97,97,100,99,93,22,100,100,100,100,73,60,80,100,86,71,100,100,"kinase still bound, per cent of control [32]: 100%; kinase still bound, per cent of control [33]: 100%; kinase still bound, per cent of control [34]: 88%; kinase still bound, per cent of control [35]: 38%; kinase still bound, per cent of control [10]: 94%; kinase still bound, per cent of control [36]: 53%; kinase still bound, per cent of control [37]: 70%; kinase still bound, per cent of control [20]: 62%; kinase still bound, per cent of control [24]: 100%; kinase still bound, per cent of control [25]: 44%; kinase still bound, per cent of control [39]: 78%; kinase still bound, per cent of control [26]: 86%; kinase still bound, per cent of control [27]: 0.15%; kinase still bound, per cent of control [28]: 0%; kinase still bound, per cent of control [29]: 100%; kinase still bound, per cent of control [30]: 90%; kinase still bound, per cent of control [31]: 53%"
